Laboratory results published in patent US20230363389A1, “MAMMAL REPELLENT” (SCENT SCIENCE INTERNATIONAL INC., priority 2020, published 2023).

Legend:
[1] = test system: C57/BL6 male mice; assay: Freezing test: innate fear (freezing) behavior of mice exposed to odor gas; type: in vivo, mouse; conditions: for freezing behavior-inducing activity (Freezing time): 10 ppm gas, 20 min observation, n = 6
From the text: A 10 ppm gas was generated for 9 kinds of available odor molecules from those reported to have a repellent effect on birds by using a gas permeator (manufactured by GASTEC, PD-1B-2). Holes (4.5 cm and 12 cm high) were respectively drilled on opposite sides of a sealed test cage (17×17×18.5 cm), a tube for discharging the gas generated by the permeator was connected to the lower hole, the gas was introduced, and the higher hole allowed the air in the test cage to be released. After the air in the test cage was completely replaced by the odor gas, C57/BL6 male mice aged about 2 months to 6 months were put into the test cage (one mouse per cage), and the freezing behavior was analyzed by a freezing behavior automatic analyzer (manufactured by Actimetrics, Freeze Frame2) for 20 min. The time during which the mouse was motionless for 2 seconds or longer was measured as a freezing behavior, and the duration of freezing behavior within 20 minutes of observation time (Freezing time) was shown in %. Each experiment was performed with n = 6.
A constant concentration of the gas of the following various compounds was generated by a gas permeator (manufactured by GASTEC, PD-1B-2). When the concentration is not particularly indicated, an odor gas was generated at a concentration of 10 ppm. Holes (4.5 cm and 12 cm high) were respectively drilled on opposite sides of a sealed test cage (17×17×18.5 cm), a tube for discharging the gas generated by the permeator was connected to the lower hole, the gas was introduced, and the higher hole allowed the air in the test cage to be released. After the air in the test cage was completely replaced by the odor gas, C57/BL6 male mice aged about 2 months to 6 months were put into the test cage (one mouse per cage), and the freezing behavior was analyzed by a freezing behavior automatic analyzer (manufactured by Actimetrics, Freeze Frame2) for 20 min. The time during which the mouse was motionless for 2 seconds or longer was measured as a freezing behavior, and the duration of freezing behavior within 20 minutes of observation time (Freezing time) was shown in %. Each experiment was performed with n = 6. […]
A 10 ppm gas of thiophene and 2-acetylthiophene was generated using a gas permeator (manufactured by GASTEC, PD-1B-2). […] After the air in the test cage was completely replaced by the odor gas, C57/BL6 male mice aged about 2 months to 6 months were put into the test cage (one mouse per cage), and the freezing behavior was analyzed by a freezing behavior automatic analyzer (manufactured by Actimetrics, Freeze Frame2) for 20 min. The time during which the mouse was motionless for 2 seconds or longer was measured as a freezing behavior, and the duration of freezing behavior within 20 minutes of observation time (Freezing time) was shown in %. […]

[2] = test system: mice; conditions: reported, Non-Patent Literature 5; cited from earlier work
[3] = test system: birds; conditions: reported, Non-Patent Literature 5; cited from earlier work

Question: With c1ccsc1 [thiophene] as the molecule, how does the “freezing behavior-inducing activity (Freezing time)” value (from here on “freezing behavior-inducing activity”) ([1]; Example 3, FIG. 3) read?
Answer: very low

Question: What about the “significant difference from no odor, student's t-test” value ([1]; Example 3, freezing time versus no odor) of the same molecule?
Answer: no significant difference

Question: With CC(=O)c1cccs1 [2-acetylthiophene] as the molecule, how does the “freezing behavior-inducing activity” value ([1]; Example 1, FIG. 1) read?
Answer: induced a freezing behavior

Question: And the “freezing behavior-inducing activity” value ([1]; Example 3, FIG. 3)?
Answer: very strong freezing behavior

Question: What does the source list for Cc1csc(C)n1 [2,4-dimethyl-thiazole]?
Answer: activity to induce freezing behavior in mice [2]: has an activity to induce freezing behavior; repellent activity in birds [3]: does not show repellent activity
